16 compounds from patent publication US9549921B2, “Heterocyclic compounds and methods of use thereof for the treatment of hepatitis C” (priority 2014, dated 2017) can be followed below.

Like-named read-outs stand apart in the source and are kept apart here.

The test system of test [1] is HCV replicon genotype 1a. The test is described as follows: HCV replicon assay, genotype 1a (cell ELISA for NS3/4A). Type of test: cell-based, hepatitis C virus. As to the method:
(§1) The HCV NS5B inhibitory activity of the present compounds may be tested using assays known in the art. The HCV NS5B polymerase inhibitors described herein have activities in a genotype 1b replicon assay as described in the Examples. The assay is performed by incubating a replicon harboring cell-line in the presence of inhibitor for a set period of time and measuring the effect of the inhibitor on HCV replicon replication either directly by quantifying replicon RNA level, or indirectly by measuring enzymatic activity of a co-encoded reporter enzyme such as luciferase or β-lactamase. By performing a series of such measurements at different inhibitor concentrations, the effective inhibitory concentration of the inhibitor (EC50 or EC90) is determined. See Jan M. Vrolijk et al., A replicons-based bioassay for the measurement of interferons in patients with chronic hepatitis C, 110 J. VIROLOGICAL METHODS 201 (2003). Such assays may also be run in an automated format for high through-put screening. See Paul Zuck et al., A cell-based β-lactamase reporter gene assay for the identification of inhibitors of hepatitis C virus replication, 334 ANALYTICAL BIOCHEMISTRY 344 (2004).
(§2) Measurement of inhibition by compounds was performed using the HCV replicon system. Several different replicons encoding different HCV genotypes or mutations were used. In addition, potency measurements were made using different formats of the replicon assay, including different ways of measurements and different plating formats. See Jan M. Vrolijk et al., A replicons-based bioassay for the measurement of interferons in patients with chronic hepatitis C, 110 J. VIROLOGICAL METHODS 201 (2003); Steven S. Carroll et al., Inhibition of Hepatitis C Virus RNA Replication by 2′-Modified Nucleoside Analogs, 278(14) J. BIOLOGICAL CHEMISTRY 11979 (2003). However, the underlying principles are common to all of these determinations, and are outlined below.
(§3) Stable neomycin phosphotransferase encoding replicons-harboring cell lines were used, so all cell lines were maintained under G418 selection prior to the assay. Potency was deteremined using a cell ELISA assay with an antibody to the replicons encoded NS3/4a protease. See Caterina Trozzi et al., In Vitro Selection and Characterization of Hepatitis C Virus Serine Protease Variants Resistant to an Active-Site Peptide Inhibitor, 77(6) J. Virol. 3669 (2003). To initiate an assay, replicon cells were plated in the presence of a dilution series of test compound in the absence of G418. Typically, the assays were performed in a 96-well plate formate for manual operation, or a 384-well plate format for automated assay. Replicon cells and compound were incubated for 96 hours. At the end of the assay, cells were washed free of media and compound, and the cells were then lysed. RNA was quantified indirectly through detection of replicon-encoded NS3/4A protein levels, through an ELISA-based assay with an antibody specific for NS3/4A. IC50 determinations were calculated as a percentage of a DMSO control by fitting the data to a four-parameter fit function and the data obtained is provided in the table below.
(§4) Data for selected compounds of the present invention was obtained for genotypes 1a and 1b using this method and is provided in the table below: […]

The test system of test [2] is HCV replicon genotype 1b. The test is described as follows: HCV replicon assay, genotype 1b (cell ELISA for NS3/4A). Type of test: cell-based, hepatitis C virus. As to the method: as §1, §2, §3, §4
In general terms: Replicon systems follow genome replication, usually without infectious particles.

Where [3] appears, read: read-out: 1a IC50, HCV genotype 1a replicon cells, 96 hours incubation, NS3/4A ELISA readout, % of DMSO control.
Where [4] appears, read: read-out: 1b IC50, HCV genotype 1b replicon cells, 96 hours incubation, NS3/4A ELISA readout, % of DMSO control.
The mark [5] stands for this setting: Hepatitis C virus, 96 h, read-out: 1a IC50 (nM), HCV genotype 1a replicon cells, 96 hours incubation, NS3/4A ELISA readout, % of DMSO control.
The mark [6] stands for this setting: Hepatitis C virus, 96 h, read-out: 1b IC50 (nM), HCV genotype 1b replicon cells, 96 hours incubation, NS3/4A ELISA readout, % of DMSO control.

In the case of `CNC(=O)c1c(-c2ccc(F)cc2)oc2cc(N(C)S(C)(=O)=O)c([C@@H]3CCCN(c4nc5ccccc5n4C)C3)cc12` (single isomer, unassigned) [Example 44, 2-(4-fluorophenyl)-N-methyl-5-(1-(1-methyl-1H-benzo[d]imidazol-2-yl)piperidin-3-yl)-6-(N-methylmethylsulfonamido)benzofuran-3-carboxamide], the IC50 was found to be 71 nM in test [1] (setting [3]) and 82.4 nM in test [2] (setting [4]).

Regarding `CNC(=O)c1c(-c2ccc(F)cc2)oc2cc(N(C)S(C)(=O)=O)c([C@@H]3CCCN(c4nc5ccccc5[nH]4)C3)cc12` (single isomer, unassigned) [Example 45, 5-(1-(1H-benzo[d]imidazol-2-yl)piperidin-3-yl)-2-(4-fluorophenyl)-N-methyl-6-(N-methylmethylsulfonamido)benzofuran-3-carboxamide], the IC50 in test [1] (setting [3]) was determined as 225 nM; in test [2] (setting [4]), 70.9 nM.

Take `CNC(=O)c1c(-c2ccc(F)cc2)oc2cc(N(C)S(C)(=O)=O)c([C@@H]3CCCN(c4nc5ccccc5[nH]4)C3)cc12` (single isomer, unassigned) [Example 46, 5-(1-(1H-benzo[d]imidazol-2-yl)piperidin-3-yl)-2-(4-fluorophenyl)-N-methyl-6-(N-methylmethylsulfonamido)benzofuran-3-carboxamide]: the IC50 came out at 11.9 nM in test [1] (setting [3]) and 9.47 nM in test [2] (setting [4]).

In the case of `CNC(=O)c1c(-c2ccc(F)cc2)oc2cc(N(C)S(C)(=O)=O)c([C@@H]3CCCN(c4nc5ccccc5o4)C3)cc12` (single isomer, unassigned) [Example 47, 5-(1-(benzo[d]oxazol-2-yl)piperidin-3-yl)-2-(4-fluorophenyl)-N-methyl-6-(N-methylmethylsulfonamido)benzofuran-3-carboxamide], the IC50 worked out at 8.37 nM in test [1] (setting [3]) and 5.37 nM in test [2] (setting [4]).

For the compound `CNC(=O)c1c(-c2ccc(F)cc2)oc2cc(N(C)S(C)(=O)=O)c([C@@H]3CCCN(c4nc5ccccc5o4)C3)cc12` (single isomer, unassigned) [Example 48, 5-(1-(benzo[d]oxazol-2-yl)piperidin-3-yl)-2-(4-fluorophenyl)-N-methyl-6-(N-methylmethylsulfonamido)benzofuran-3-carboxamide], the IC50 in test [1] (setting [3]) was 40.2 nM; in test [2] (setting [4]), 24.8 nM.

For the compound `CNC(=O)c1c(-c2ccc(F)cc2)oc2cc(N(C)S(C)(=O)=O)c([C@@H]3CCCN(c4nc5c(F)cccc5o4)C3)cc12` (single isomer, unassigned) [Example 49, 5-(1-(4-fluorobenzo[d]oxazol-2-yl)piperidin-3-yl)-2-(4-fluorophenyl)-N-methyl-6-(N-methylmethylsulfonamido)benzofuran-3-carboxamide], the IC50 in test [1] (setting [3]) came out at 5.76 nM; in test [2] (setting [4]), 7.44 nM.

On to `CNC(=O)c1c(-c2ccc(F)cc2)oc2cc(N(C)S(C)(=O)=O)c([C@@H]3CCCN(c4nc5c(F)cccc5o4)C3)cc12` (single isomer, unassigned) [Example 50, 5-(1-(4-fluorobenzo[d]oxazol-2-yl)piperidin-3-yl)-2-(4-fluorophenyl)-N-methyl-6-(N-methylmethylsulfonamido)benzofuran-3-carboxamide], for which the IC50 in test [1] (setting [3]) came to 81.7 nM; in test [2] (setting [4]), 20.1 nM.

For `CNC(=O)c1c(-c2ccc(F)cc2)oc2cc(N(C)S(C)(=O)=O)c([C@@H]3CCCN(c4nc5cc(F)ccc5o4)C3)cc12` (single isomer, unassigned) [Example 52], the IC50 in test [1] (setting [5]) was 32.6 nM; in test [2] (setting [6]), 42.6 nM.

For `CNC(=O)c1c(-c2ccc(F)cc2)oc2cc(N(C)S(C)(=O)=O)c([C@@H]3CCCN(c4nc5ncccc5o4)C3)cc12` (single isomer, unassigned) [Example 53, 2-(4-fluorophenyl)-N-methyl-6-(N-methylmethylsulfonamido)-5-(1-(oxazolo[4,5-b]pyridin-2-yl)piperidin-3-yl)benzofuran-3-carboxamide], the IC50 was 14.6 nM in test [1] (setting [5]) and 15.7 nM in test [2] (setting [6]).

In the case of `CNC(=O)c1c(-c2ccc(F)cc2)oc2cc(N(C)S(C)(=O)=O)c([C@@H]3CCCN(c4nc5ncccc5o4)C3)cc12` (single isomer, unassigned) [Example 54, 2-(4-fluorophenyl)-N-methyl-6-(N-methylmethylsulfonamido)-5-(1-(oxazolo[4,5-b]pyridin-2-yl)piperidin-3-yl)benzofuran-3-carboxamide], the values for the IC50 in test [1] (setting [3]) and in test [2] (setting [4]) were 7.38 nM and 13.9 nM, respectively.

As to `CNC(=O)c1c(-c2ccc(F)cc2)oc2cc(N(C)S(C)(=O)=O)c([C@@H]3CCCN(c4nc5c(F)cccc5[nH]4)C3)cc12` (single isomer, unassigned) [Example 55, 5-(1-(4-fluoro-1H-benzo[d]imidazol-2-yl)piperidin-3-yl)-2-(4-fluorophenyl)-N-methyl-6-(N-methylmethylsulfonamido)benzofuran-3-carboxamide], the IC50 in test [1] (setting [3]) was 5.65 nM; in test [2] (setting [4]), 3.63 nM.

Regarding `CNC(=O)c1c(-c2ccc(F)cc2)oc2cc(N(C)S(C)(=O)=O)c([C@@H]3CCCN(c4nc5c(F)cccc5[nH]4)C3)cc12` (single isomer, unassigned) [Example 56, 5-(1-(4-fluoro-1H-benzo[d]imidazol-2-yl)piperidin-3-yl)-2-(4-fluorophenyl)-N-methyl-6-(N-methylmethylsulfonamido)benzofuran-3-carboxamide], the IC50 in test [1] (setting [3]) amounted to 53.7 nM; in test [2] (setting [4]), 23.9 nM.

`CNC(=O)c1c(-c2ccc(F)cc2)oc2cc(N(C)S(C)(=O)=O)c([C@@H]3CCCN(c4ncc(-c5ccc(F)cc5)o4)C3)cc12` (single isomer, unassigned) [Example 57, 2-(4-fluorophenyl)-5-(1-(5-(4-fluorophenyl)oxazol-2-yl)piperidin-3-yl)-N-methyl-6-(N-methylmethylsulfonamido)benzofuran-3-carboxamide]: the IC50 was 19.9 nM in test [1] (setting [3]) and 22.2 nM in test [2] (setting [6]).

In the case of `CNC(=O)c1c(-c2ccc(F)cc2)oc2cc(N(C)S(C)(=O)=O)c([C@@H]3CCCN(c4ncc(-c5ccc(F)cc5)o4)C3)cc12` (single isomer, unassigned) [Example 58, 2-(4-fluorophenyl)-5-(1-(5-(4-fluorophenyl)oxazol-2-yl)piperidin-3-yl)-N-methyl-6-(N-methylmethylsulfonamido)benzofuran-3-carboxamide], the IC50 was determined as 132 nM in test [1] (setting [3]) and 36.1 nM in test [2] (setting [4]).

For the compound `CNC(=O)c1c(-c2ccc(F)cc2)oc2cc(N(C)S(C)(=O)=O)c([C@@H]3CCCN(C(=O)C4C5COCC54)C3)cc12` (stereo in doubt) [Example 59, 2-(4-fluorophenyl)-N-methyl-6-[methyl(methylsulfonyl)amino]-5-[1-(3-oxabicyclo[3.1.0]hex-6-ylcarbonyl)piperidin-3-yl]-1-benzofuran-3-carboxamide], the IC50 was found to be 308 nM in test [1] (setting [5]) and 120 nM in test [2] (setting [6]).

As for `CNC(=O)c1c(-c2ccc(F)cc2)oc2cc(N(C)S(C)(=O)=O)c([C@@H]3CCCN(C(=O)C4CC4c4ccc(F)cc4)C3)cc12` (stereo in doubt) [Example 61, 2-(4-fluorophenyl)-5-(1-{[2-(4-fluorophenyl)cyclopropyl]carbonyl}piperidin-3-yl)-N-methyl-6-[methyl(methylsulfonyl)amino]-1-benzofuran-3-carboxamide], the results for the IC50 in test [1] (setting [5]) and in test [2] (setting [6]) were 251 nM and 99.5 nM, respectively.
